Blank lines part the entries; values can stand above or below the molecule they belong to.
Experiments:
[1] = molecular target: T1, Glucokinase regulatory protein (Rattus norvegicus, UniProt Q07071); experiment: Inhibition of GKRP-GK interaction in rat primary hepatocytes assessed as translocation of GK from nucleus to cytoplasm preincubated for 20 mins followed by glucose addition measured after 40 mins by fluorescence assay; assay type: cell-based, Hepatocyte
T1 sequence (Q07071 whole entry): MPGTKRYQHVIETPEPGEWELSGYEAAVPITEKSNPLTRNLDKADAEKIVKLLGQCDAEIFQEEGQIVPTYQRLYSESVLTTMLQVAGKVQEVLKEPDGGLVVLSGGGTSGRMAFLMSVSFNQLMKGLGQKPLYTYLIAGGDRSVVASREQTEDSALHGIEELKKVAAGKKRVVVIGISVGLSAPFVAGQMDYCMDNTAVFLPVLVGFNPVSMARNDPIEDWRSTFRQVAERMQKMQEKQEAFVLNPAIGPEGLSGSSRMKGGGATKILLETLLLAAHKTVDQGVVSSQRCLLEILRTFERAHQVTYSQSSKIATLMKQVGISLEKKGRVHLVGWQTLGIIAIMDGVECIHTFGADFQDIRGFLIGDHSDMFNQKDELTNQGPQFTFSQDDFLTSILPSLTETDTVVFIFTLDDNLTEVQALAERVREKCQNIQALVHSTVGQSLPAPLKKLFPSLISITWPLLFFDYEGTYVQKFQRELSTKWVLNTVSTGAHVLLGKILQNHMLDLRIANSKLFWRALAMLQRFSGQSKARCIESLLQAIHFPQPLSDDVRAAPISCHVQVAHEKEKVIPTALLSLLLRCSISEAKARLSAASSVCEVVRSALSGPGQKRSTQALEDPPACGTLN

[2] = Oral bioavailability in Sprague-Dawley rat at 10 mg/kg; assay type: ADME, organism-based; settings: in vivo
[3] = Volume of distribution at steady state in Sprague-Dawley rat at 2 mg/kg, iv; assay type: ADME, organism-based; design: dose 2 mg/kg, route intravenous; settings: in vivo, read-out: Vdss
[4] = Clearance in Sprague-Dawley rat at 2 mg/kg, iv; assay type: ADME, organism-based; design: dose 2 mg/kg, route intravenous; settings: in vivo
Hexokinase-4 = molecular target: T2, Hexokinase-4 (Homo sapiens, UniProt P35557); experiment: Activation of human glucokinase
T2 sequence (P35557 whole entry): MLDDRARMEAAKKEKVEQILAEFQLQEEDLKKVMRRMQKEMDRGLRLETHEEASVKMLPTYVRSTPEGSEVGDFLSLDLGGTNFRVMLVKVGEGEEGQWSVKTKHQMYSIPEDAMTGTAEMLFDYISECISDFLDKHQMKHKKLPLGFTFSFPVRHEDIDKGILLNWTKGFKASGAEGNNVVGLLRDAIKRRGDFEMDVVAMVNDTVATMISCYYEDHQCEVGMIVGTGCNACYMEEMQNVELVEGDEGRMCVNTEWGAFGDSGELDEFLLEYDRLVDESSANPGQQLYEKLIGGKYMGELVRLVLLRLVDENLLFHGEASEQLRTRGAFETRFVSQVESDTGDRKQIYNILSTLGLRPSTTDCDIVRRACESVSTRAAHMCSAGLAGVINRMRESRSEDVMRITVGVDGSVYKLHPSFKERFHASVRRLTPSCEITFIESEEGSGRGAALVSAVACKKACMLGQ

[5] = Cmax in Sprague-Dawley rat at 10 mg/kg, po; assay type: ADME, organism-based; design: dose 10 mg/kg, route oral; settings: in vivo
[6] = Fraction unbound in Sprague-Dawley rat plasma at 2 mg/kg, iv and 10 mg/kg, po; assay type: ADME, organism-based; settings: other: intravenous and oral
Rattus norvegicus [7] = experiment: fCmax in Wistar rat at 100 mg/kg, po; assay type: ADME, organism-based; design: dose 100 mg/kg, route oral; settings: in vivo
Rattus norvegicus [8] = species: Rattus norvegicus; experiment: Toxicity in Zucker diabetic fatty rat assessed as change in plasma insulin level; assay type: organism-based; settings: in vivo
Rattus norvegicus [9] = species: Rattus norvegicus; experiment: fCmax in Sprague-Dawley rat; assay type: ADME, organism-based; settings: in vivo
Rattus norvegicus [10] = species: Rattus norvegicus; experiment: Toxicity in Zucker diabetic fatty rat assessed as change in plasma triglyceride level; assay type: organism-based; settings: in vivo
Rattus norvegicus [11] = experiment: Toxicity in Wistar rat assessed as induction of hypoglycemia at 100 mg/kg, po; assay type: organism-based; design: dose 100 mg/kg, route oral; settings: in vivo
[12] = Intrinsic clearance in Sprague-Dawley rat liver microsomes at 1 uM after 30 mins in presence of NADPH; assay type: ADME; settings: read-out: CLH

bioavailability [2]: 28%
Vd [3]: 6.81 L/kg
clearance [4]: 44 mL/min/kg
EC50 (Hexokinase-4): > 50000 nM
Cmax [5]: 350 nM
fraction unbound [6]: 0.0062
SMILES: O=S(=O)(c1cccs1)N1CCN(c2ccc(C(O)(C(F)(F)F)C(F)(F)F)cc2)CC1

EC50 [1]: 5470 nM
SMILES: O=S(=O)(c1cccs1)N1CCN(c2ccc(C(O)(C(F)(F)F)C(F)(F)F)cc2)[C@@H](CC2CCOCC2)C1

bioavailability [2]: 7.86%
fCmax (Rattus norvegicus [7]): 0.056 µM
fCmax (Rattus norvegicus [9]): 0.004 µM
EC50 [1]: 82 nM
microsomal CLint at 1 µM [12]: 608 µL/min/mg
EC50 (Hexokinase-4): > 50000 nM
Cmax [5]: 110 nM
fraction unbound [6]: 0.037
SMILES: C[C@H]1COCCN1C[C@H]1CN(S(=O)(=O)c2cccs2)CCN1c1ccc([C@@](C)(O)C(F)(F)F)cc1
Activity (Rattus norvegicus [8]): Non-toxic
Activity (Rattus norvegicus [10]): Non-toxic
Activity (Rattus norvegicus [11]): Toxic

More lines, now with the values behind:

SMILES: C[C@@](O)(c1ccc(N2CCN(S(=O)(=O)c3cccs3)C[C@@H]2CC2CCOCC2)cc1)C(F)(F)F
EC50 [1]: 890 nM

SMILES: C[C@](O)(c1ccc(N2CCN(S(=O)(=O)c3cccs3)C[C@@H]2CC2CCOCC2)cc1)C(F)(F)F
EC50 [1]: 4760 nM

SMILES: C[C@H]1COCCN1C[C@H]1CN(S(=O)(=O)c2cccs2)CCN1c1ccc(C(O)(C(F)(F)F)C(F)(F)F)cc1
EC50 [1]: 1810 nM

SMILES: C[C@H]1COCCN1C[C@H]1CN(S(=O)(=O)c2cccs2)CCN1c1ccc([C@](C)(O)C(F)(F)F)cc1
EC50 [1]: 220 nM

SMILES: O=S(=O)(c1cccs1)N1CCN(c2ccc(C(O)(C(F)(F)F)C(F)(F)F)cc2)[C@@H](CN2CCOCC2)C1
EC50 [1]: 3990 nM
